According to patent US9962326B2, “Compositions comprising paulownia tomentosa wood extracts and uses thereof” (JOHNSON & JOHNSON CONSUMER INC., priority 2010, dated 2018):

Tested on: UV-induced ROS, primary human keratinocytes
Test: Inhibition of Reactive Oxygen Species Formation in primary human keratinocytes
Assay type: cell-based
Conditions: for Reactive Oxygen Species Produced (MFU): 60 minutes post UV
Experimental: The anti-oxidant activity of Paulownin was established via the Inhibition of Reactive Oxygen Species Formation assay described above. In this study primary human keratinocytes were substituted for human epithelial (KB) cells. The keratinocytes were plated in 96-well tissue culture treated plates at a density of 5000 cells/well in Dulbecco's modified Eagle's medium (DMEM) supplemented with 10% fetal bovine serum (Invitrogen Corp., San Diego, Calif.). After 48 hours, cells were incubated for 30 minutes with 5 μM of the hydrogen peroxide-sensitive fluorescent probe 5-(and-6)-chloromethyl-2′,7′-dichlorodihydro-fluorescein diacetate, acetyl ester (CM-H2DCFDA) (Invitrogen Corp., Carlsbad, Calif.). After incubation, the plate was rinsed to remove excess probe and Paulownin was added at the indicated concentrations. The plate was immediately read on a fluorescent plate reader set at wavelengths 485 nm excitation/530 nm emission to detect basal peroxide formation. The plate was then exposed to UV (1000W-Oriel solar simulator equipped with a 1 mm Schott WG 320 filter; UV dose applied 4.2 kJ/m^2 as measured at 360 nm). The plate was read 60 minutes post UV exposure and the data reported as mean fluorescent units (MFU).

SMILES: OC12COC(c3ccc4c(c3)OCO4)C1COC2c1ccc2c(c1)OCO2 (stereo not shown) [Paulownin]
- UV-induced production of ROS (in words): significantly reduce
- Percent Inhibition of UV Induced ROS Formation (UV + 50 ug/ml): 65.3%
- Reactive Oxygen Species Produced (MFU) (UV + 50 ug/ml): 46.3 ± 6.9 MFU
- Percent Inhibition of UV Induced ROS Formation (UV + 100 ug/ml): 69.5%
- Reactive Oxygen Species Produced (MFU) (UV + 100 ug/ml): 40.5 ± 6.1 MFU
- Percent Inhibition of UV Induced ROS Formation (UV + 200 ug/ml): 72.1%
- Reactive Oxygen Species Produced (MFU) (UV + 200 ug/ml): 37.2 ± 3.4 MFU
